Measured values: patent EP0247900A1, “Topical methotrexate preparation for the treatment of hyperproliferative epithelial disease” (THE REGENTS OF THE UNIVERSITY OF CALIFORNIA, priority 1986, dated 1987)

What was measured:
psoriasis = details: 0.1% and 0.5% MTX in vehicle with 2.5% C-10-methylsulfoxide, six patients, daily for nine days; cited from earlier work
hairless mouse skin = assay: Skin changes after topical MTX in normal and essential fatty acid deficient hairless mice; type: in vivo, HRS/J albino hairless mice; details: three daily applications of 2% MTX in Vehicle N, untreated abdominal skin not similarly affected
Method: (§1) HRS/J albino hairless mice, age 2-3 months, were used for these experiments. For induction of the […] fatty acid deficiency, 3-week-old animals were fed an essential fatty acid deficient diet (Teklad) for 60 days.
Topical MTX preparations at various concentrations or vehicle control in the amount of 0.05 ml were applied to the backskin area of 1.5 cm by 3 cm daily for 1 or 3 days. Six to ten mice were used for each treatment group. Tritiated deoxyuridine was utilized as a precursor for assaying the effects of methotrexate on the de novo pathway for epidermal DNA synthesis. The incorporation of tritiated deoxyuridine into DNA depends on the normal functioning of dihydrofolate reductase which is blocked by methotrexate. At selected time points after single or repeated topical MTX applications, mice were injected IP with tritiated deoxyuridine (50-100 uCi) for measurement of epidermal DNA synthesis in treated backskin to determine the local effect of MTX. DNA synthesis was simultaneously measured in untreated abdominal skin of Vehicle N and MTX-treated animals to determine systemic effects of MTX at a distant site. […] Results of epidermal DNA synthesis were calculated as counts/minute/ug of DNA. The effects of MTX treatment on DNA synthesis of the back and abdomen were expressed as percentage of the DNA synthesis of Vehicle N treated back skin and untreated abdomin in control animals. […]

[1] = prior-art topical MTX preparations, in vitro and in vivo; cited from earlier work
epidermal DNA synthesis [2] = assay: In vivo epidermal labeling index (DNA synthesis) in the mini-pig model; parameters: species or system Mini-pigs; details: for Epidermal Labeling Index: applied daily for 7 days, mini-pig dorsal skin
Method: The formulations of Example III were tested for effect on in vivo DNA synthesis in the mini-pig model. Mini-pig skin closely resembles human skin and the effect of a drug on epidermal cell proliferation is a recognized test for the effectiveness of therapeutic protocols for hyperproliferative skin disease.
Mini-pigs were obtained from Charles River Laboratories, Inc. (Wilmington, MA). Drug preparations were applied to small areas of dorsal skin (ca 1 inch square) according to the selected application schedules. Six hours following the last drug application, tritiated thymidine was injected into the drug treatment sites for autoradiographic assessment of epidermal proliferation as measured by epidermal labeling index. Weinstein & and Van Scott, (1965) J. Invest. Derm. 44:413
A vehicle containing various concentrations of MTX was applied daily for 7 days. Tritiated deoxyuridine was injected into the treatment sites on day 7, as well as in untreated control area. DNA synthesis was measured as described in Example II.
Formulations were applied daily for 7 days. […] Autoradiographs were scored at 4 wk.

[3] = test system: psoriatic epidermal DNA synthesis; assay: Intradermal administration of MTX; type: in vivo; details: administered intradermally, compared with systemic MTX
Excerpt: Thus, it has been discovered that MTX or its analogs can be administered topically in an effective manner to skin afflicted with a hyperproliferative epithelial disease avoiding, therefore, the serious side effects associated with systemic MTX administration.

[4] = In vitro percutaneous penetration of MTX in glass diffusion cells
Method: Methotrexate was obtained from Lederle Laboratories, Pearl River, NY. Methotrexate (3',5',7-^3H)sodium (250 mCi/mmol) was obtained from Amersham and prior to use was purified by chromatography on thin-layer cellulose plates in 0.006 M potassium phosphate buffer, pH 6.0. Vehicle N was obtained from the Neutrogena Corporation. Los Angeles, CA.
The percutaneous penetration of MTX was measured in glass diffusion cells as previously described. McCullough et al (1976) J Invest Derm 66:103-107. Excised human skin obtained from abdominoplasty was used for these studies. First, 0.5 ml containing 10 µCi methotrexate-^3H and cold methotrexate to give a final concentration of 2% in various vehicles was applied to the epidermal surface (0.2 ml/cm^2). A total of […] methotrexate was applied to each diffusion cell. The dermal reservoir contained phosphate buffered saline. Three diffusion cells were run for each vehicle. Diffusion cells were incubated with constant stirring at 28°C. Methotrexate penetration was followed at various time points up to 48 hr by liquid scintillation counting. The test solution was removed after the 48 hr incubation period, and the epidermal surface was rinsed three times with vehicle in which the drug being tested was dissolved. […] The epidermis was separated by heating the skin for 1 min on a hot plate at 60°C. MTX was extracted from the epidermis and dermis utilizing the techniques described by Werkheiser et al (1962) J Pharmacol Exp Ther 137:162-166, which specifically disassociates MTX from cellular bound proteins. The stratum corneum was removed by repeated stripping with cellophane tape until the skin glistened.
In vitro percutaneous penetration studies were carried out according to the methods of Example I with formulations of a topical gel containing about 3% Azone and various concentrations of MTX.
Employing the methods described in Example I, various vehicles containing 2% by weight of tritiated MTX were tested in vitro on human skin.
Additional studies with the mini-pig model, as described in Example IV, were conducted to test various carriers with different concentrations of MTX and Azone. Formulations were applied daily for 7 days. Three sites per treatment area were injected with ^3H-UdR. Autoradiographs were scored at 4 wk. Techniques as described in Examples I and II were employed to measure percutaneous penetration and DNA synthesis.
Various vehicle formulations were evaluated in vitro at various MTX concentrations for penetration of MTX into the epidermis. Penetration was evaluated as described in Example I. Unless otherwise noted, all vehicles were a gel formulation that contained 3% Azone.

epidermal DNA synthesis [5] = assay: In vivo epidermal DNA synthesis (tritiated deoxyuridine incorporation) after topical MTX in hairless mice; parameters: species or system HRS/J albino hairless mice; details: for suppression of epidermal DNA synthesis in treated back skin: compared to Vehicle N treated control
Excerpt: Deoxyuridine (6-^3H) (25 Ci/mmol) was obtained from New England Nuclear. Other materials were obtained as described in Example I.
as §1
Six to ten mice were used for each treatment group. Tritiated deoxyuridine was utilized as a precursor for assaying the effects of methotrexate on the de novo pathway for epidermal DNA synthesis. The incorporation of tritiated deoxyuridine into DNA depends on the normal functioning of dihydrofolate reductase which is blocked by methotrexate. At selected time points after single or repeated topical MTX applications, mice were injected IP with tritiated deoxyuridine (50-100 uCi) for measurement of epidermal DNA synthesis in treated backskin to determine the local effect of MTX. DNA synthesis was simultaneously measured in untreated abdominal skin of Vehicle N and MTX-treated animals to determine systemic effects of MTX at a distant site. One hour after administration of isotope, animals were sacrificed by cervical dislocation, and treated backskin and untreated abdominal skin was obtained. Epidermis was removed after incubating the skin specimens for 1 hr at 37°C in 2 M sodium bromide. DNA was extracted and assayed using the technique described by Halprin et al (1979) J Invest Derm 73:359-363. Results of epidermal DNA synthesis were calculated as counts/minute/ug of DNA. The effects of MTX treatment on DNA synthesis of the back and abdomen were expressed as percentage of the DNA synthesis of Vehicle N treated back skin and untreated abdomin in control animals.

[6] = 0.1% Methotrexate in topical gel containing about 3% Azone
[7] = 0.5% Methotrexate in topical gel containing about 3% Azone
[8] = 1.0% Methotrexate in topical gel containing about 3% Azone

CN(Cc1cnc2nc(N)nc(N)c2n1)c1ccc(C(=O)N[C@@H](CCC(=O)O)C(=O)O)cc1 [MTX, Methotrexate]
clinical improvement (psoriasis): no significant improvement in any of the patients | effect on epidermis of treated skin (hairless mouse skin): marked epidermal atrophy | percutaneous penetration of human skin [1]: negligible percutaneous penetration | Epidermal Labeling Index (epidermal DNA synthesis [2]; 0.5% Methotrexate in gel with about 3% Azone): 0.0 ± 0.0% | labeling intensity (rate of DNA synthesis) (epidermal DNA synthesis [2]; 0.5% and 1.0% MTX in Azone gel, daily for 7 days, compared to the vehicle control): slight decrease in labeling intensity | Epidermal Labeling Index (epidermal DNA synthesis [2]; 1.0% Methotrexate in gel with about 3% Azone): 0.8 ± 1.4% | biochemical effects and biological actions [3]: same biochemical effects (inhibition of psoriatic epidermal DNA synthesis) and biological actions (mitotic inhibition and damaged cell production) as systemic MTX | Cumulative Penetration 48 hr [4, 6]: 0.6 ± 0.2 µg | Epidermal Content [4, 6]: 3.9 ± 0.3 µg | Cumulative Penetration 48 hr [4, 7]: 7.5 ± 1.4 µg | Epidermal Content [4, 7]: 24.1 ± 8.1 µg | Cumulative Penetration 48 hr [4, 8]: 18.7 ± 6.1 µg | Epidermal Content [4, 8]: 36.0 ± 11.7 µg | effect on DNA synthesis in back skin and untreated abdominal skin (epidermal DNA synthesis [5]; four daily applications of MTX in Vehicle N): total suppression of DNA synthesis | effect on DNA synthesis (epidermal DNA synthesis [5]; single application of MTX in Vehicle N): ineffective | effect on DNA synthesis in treated skin (epidermal DNA synthesis [5]; three daily applications of 1% MTX in Vehicle N, 6 hr after the last treatment): produced inhibition of DNA synthesis | systemic effect on DNA synthesis in untreated abdominal skin (epidermal DNA synthesis [5]; three daily applications of 2% MTX in Vehicle N, at 54 hr (6 hr after the last treatment)): no significant (p < 0.001) systemic methotrexate effect | suppression of epidermal DNA synthesis in treated back skin (epidermal DNA synthesis [5]; three daily applications of 2% MTX in Vehicle N, at 54 hr): 50% | local and systemic effect on DNA synthesis (epidermal DNA synthesis [5]; three daily applications of 2% MTX in Vehicle N, at 72 hr, 24 hr after the last treatment): both local and systemic effects were obtained | suppression of epidermal DNA synthesis in treated back skin (epidermal DNA synthesis [5]; three daily applications of 2% MTX in Vehicle N, at 72 hr): 75% | effect on DNA synthesis (epidermal DNA synthesis [5]; three daily applications of MTX in Vehicle N at concentrations lower than 1%): no local or systemic effect | effect on epidermal DNA synthesis (epidermal DNA synthesis [5]; topical MTX (0.5%) in N-decylmethylsulfoxide): no effect on epidermal DNA synthesis
